For this test, the system named is HIV-1 protease. Conditions: for potency relative to the P-9 peptide: protease inhibitor potency compared with P-9 as standard.

The structures appear in SMILES notation. Where a SMILES comes first, the peptide text is derived from it. [ ]: non-standard residue; d: D form. Phe(4-NH2) = Nc1ccc(C[C@H](N)C(=O)O)cc1; Sta = CC(C)C[C@H](N)[C@@H](O)CC(=O)O

Experimental: A 100 µl control reaction was established containing 10 to 20 µI of crude protease, about 2 µl of the gag supernatant and final concentrations of 50 mM MES Buffer (pH 5.5), 1 mM DTT and 25 mM NaCI. Inhibition assays were performed by pre-incubating the crude protease with an inhibitory compound at room temperature for about 30 minutes before adding the gag supernatant to the reaction. Both the control and the experimental reactions were incubated from three to sixteen hours at 37° C. The reactions were then electrophoresed and blotted onto nitrocellulose filters. Monoclonal antibodies which recognize epitopes on p24 and p17 viral proteins were contacted with the filter then visualized using standard biotinylation or radionuclear techniques. Compounds which prevented the maturation of the gag polypeptide into mature viral proteins p24 and p17 were then ranked according to their HIV-1 protease inhibitory activity.
About 10 to 20 µl of the crude protease lysate was mixed with about 2 µl of the gag supernatant. The mixture was then brought to a total volume of 100 µl by the addition of distilled water, MES buffer (2-(N-Morpholino]ethanesulfonic acid) (pH 5.5 to a total concentration of 50 mM), DTT (dithiolthreitol) (to a total concentration of 1 mM) and NaCl (to a total concentration of 25 mM). This reaction mixture was mixed gently then incubated from 3 hours to overnight at 37° C.
Next, about 25 µl of the reaction was mixed with loading buffer and subjected to polyacrylamide gel electrophoresis on a 12.5% Laemmli gel under reducing conditions. The proteins were transferred onto a nitrocellulose filter using standard "Western Blot" electrophoresis at 500 mAmps for 35 minutes at room temperature. The filter was air-dried, then non-specific immunoreaction was blocked by washing the filter for 30 minutes at 4° C in a solution of 3% non-fat dry milk powder in phosphate buffered saline (PBS).
Monoclonal antibodies against p17 and/or p24 (available from Dupont, Wilmington, Delaware) were added to about 40 ml of the 3% milk/PBS solution to a final concentration of 2 µg/ml. The nitrocellulose filter was added to the antisera solution and slowly rocked for 2 hours at 4 C. The filter then was removed and washed 5 times with PBS, then the maturation of the gag gene was determined by reaction with 1^125- labeled protein A or by reaction with biotinylated anti-mouse lgG antibodies (Vecta Stain@).
To run the I^125-labeled protein A reaction, about 10 µCi of I^125-labeled protein A was added to 100 ml of the 3% milk/PBS solution. The filter was rocked in this solution for 2 hours at 4° C, washed three times with PBS, then two times with PBS and 0.1% Tween 20. The filter was then air-dried and exposed to x-ray film for autoradiography.
The Vecta Stain@ (Vector Laboratories, Burlingome, California) procedure was performed according to the manufacturer's recommendations. Four drops of the biotinylated IgG was added to 40 mls of the 3% Milk/PBS solution, then the filter was rocked in this solution for 60 minutes at 4° C. The filter was washed five times with PBS, then rocked for 30 to 60 minutes at 4 C in Reagent ABC. Reagent ABC was prepared by adding 4 drops of Reagent A (Avidin DH) and 4 drops of Reagent B (biotinylated peroxidase) to 20 ml of 3% Milk/PBS. The filter was then washed five times with PBS, then the filter was developed by washing it for 5 to 10 minutes in 10 ml of PBS containing 0.02% H202 and 10 ml of 4-chloro-1 naphthol. When the color was fully developed, the filter was washed with distilled water and air-dried.
Following the procedure, it is simple to determine the activity of the HIV-1 protease encoded on plasmid pHP10D and produced in E. coli cells.

In the case of `CC(=O)N[C@H](C(=O)N[C@@H](CC(C)C)[C@@H](O)CC(=O)N[C@@H](CC(C)C)C(=O)N[C@@H](Cc1ccccc1)C(N)=O)C(C)C` [Ac-Val-Statine-Leu-Phe-NH2] (Ac-V[Sta]LF-NH2), the “HIV protease inhibitory activity (result in words)” value is “inactive”.
For the molecule `COc1ccc(C[C@H](NC(C)=O)C(=O)N[C@@H](Cc2ccccc2)C(=O)N[C@H](C(=O)N[C@@H](CC(C)C)[C@@H](O)CC(=O)N[C@@H](CC(C)C)C(=O)N[C@@H](Cc2ccccc2)C(=O)N[C@@H](Cc2ccc(O)cc2)C(=O)N[C@@H](CC(C)C)C(N)=O)C(C)C)cc1` [Ac-YOM-Phe-Val-Statine-Leu-Phe-Tyr-Leu-NH2] (Ac-Y(Me)FV[Sta]LFYL-NH2), the “HIV protease inhibitory activity (result in words)” value was “totally inactive”.
For the molecule `CC(C)C[C@H](NC(=O)C[C@H](O)[C@H](CC(C)C)NC(=O)[C@@H](NC(=O)[C@H](Cc1ccccc1)NC(=O)[C@@H]1CCCN1C(=O)[C@H](Cc1ccc(N)cc1)NC(=O)[C@@H]1CCCN1)C(C)C)C(=O)N[C@@H](Cc1ccccc1)C(=O)N[C@@H](Cc1ccc(N)cc1)C(N)=O` [P-1, H-Pro-paF-Pro-Phe-Val-Statine-Leu-Phe-paF-NH2] (H-P[Phe(4-NH2)]PFV[Sta]LF[Phe(4-NH2)]-NH2), under “(S,S) Statine versus R,S-Sta peptide”, the “potency relative to the R,S-diastereomer (P-28)” value was 20 times.
In the case of `COc1ccc(C[C@H](NC(C)=O)C(=O)N2CCC[C@H]2C(=O)N[C@@H](Cc2ccccc2)C(=O)N[C@H](C(=O)N[C@@H](CC(C)C)[C@@H](O)CC(=O)N[C@@H](CC(C)C)C(=O)N[C@@H](Cc2ccccc2)C(N)=O)C(C)C)cc1` [P-9, Ac-YOM-Pro-Phe-Val-Statine-Leu-Phe-NH2] (Ac-Y(Me)PFV[Sta]LF-NH2), the “potency relative to P-7” value (protease inhibitor potency compared with P-7) was “increases the potency three to four times”.
Take `COc1ccc(C[C@H](NC(=O)[C@H](Cc2ccc(O)cc2)NC(=O)CNC(C)=O)C(=O)N2CCC[C@H]2C(=O)N[C@@H](Cc2ccccc2)C(=O)N[C@H](C(=O)N[C@@H](CC(C)C)[C@@H](O)CC(=O)N[C@@H](CC(C)C)C(=O)N[C@@H](Cc2ccccc2)C(N)=O)C(C)C)cc1` [P-29, Ac-Gly-Tyr-YOM-Pro-Phe-Val-Statine-Leu-Phe-NH2] (Ac-GYY(Me)PFV[Sta]LF-NH2): the “potency relative to the P-9 peptide” value was “three times more potent”.
Regarding `COc1ccc(C[C@H](NC(C)=O)C(=O)N2CCC[C@H]2C(=O)N[C@@H](Cc2ccccc2)C(=O)N[C@H](C(=O)N[C@@H](CC(C)C)[C@@H](O)CC(=O)N[C@@H](CC(C)C)C(=O)N[C@@H](Cc2ccccc2)C(=O)N[C@@H](Cc2ccc(O)cc2)C(=O)N[C@@H](CC(C)C)C(N)=O)C(C)C)cc1` [P-30, Ac-YOM-Pro-Phe-Val-Statine-Leu-Phe-Tyr-Leu-NH2] (Ac-Y(Me)PFV[Sta]LFYL-NH2), the “potency relative to the P-9 peptide” value is reported as “about 1.5 times”.

(Values after EP0431784A2, “Methods for treating retroviral infection” (ELI LILLY AND COMPANY, priority 1989, dated 1991).)
